Assay results from patent US20160326142A1, “PYRAZOLE CARBOXAMIDE COMPOUNDS, COMPOSITIONS AND METHODS OF USE” (Genentech, Inc., priority 2012, published 2016).

Target: T1, ITK (Homo sapiens, UniProt Q08881)
T1 construct: purchased Invitrogen PV3875
T1 sequence (Q08881 1-620): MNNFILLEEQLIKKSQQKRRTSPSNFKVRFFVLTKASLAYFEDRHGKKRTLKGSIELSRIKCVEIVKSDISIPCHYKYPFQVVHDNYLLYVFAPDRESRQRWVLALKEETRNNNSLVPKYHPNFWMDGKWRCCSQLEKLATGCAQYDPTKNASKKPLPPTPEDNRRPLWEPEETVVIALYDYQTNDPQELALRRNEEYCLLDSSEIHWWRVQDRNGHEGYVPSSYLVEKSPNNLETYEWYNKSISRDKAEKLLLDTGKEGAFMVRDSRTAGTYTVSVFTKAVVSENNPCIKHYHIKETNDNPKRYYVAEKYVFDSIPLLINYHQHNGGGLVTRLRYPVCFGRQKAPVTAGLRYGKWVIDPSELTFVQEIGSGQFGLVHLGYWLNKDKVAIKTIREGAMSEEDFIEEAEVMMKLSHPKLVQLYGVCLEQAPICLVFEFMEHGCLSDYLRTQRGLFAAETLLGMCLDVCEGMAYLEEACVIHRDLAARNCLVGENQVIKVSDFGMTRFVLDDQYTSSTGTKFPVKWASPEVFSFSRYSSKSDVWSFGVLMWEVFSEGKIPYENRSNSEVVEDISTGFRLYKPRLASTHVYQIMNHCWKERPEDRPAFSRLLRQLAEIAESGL
Assay: ITK enzyme assay (Caliper or LCMS peptide phosphorylation)
Assay type: biochemical
Settings: purified ITK (Invitrogen PV3875), 20 μM ATP, Ki by Morrison's quadratic equation
How it was run: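 Ki values come from Morrison quadratic fits of activity versus inhibitor concentration, adjusted for ATP-competitive inhibition against ATP/Km,app. Substrate and phosphopeptide from purified ITK reactions were resolved either microfluidically (Caliper, EDTA stop) or by LC-MS MRM (TCA stop).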

Compared with `CC12Cc3c(C(=O)Nc4cnn(Cc5ccccc5)c4)n[nH]c3C1C2` (single isomer, unassigned) [Example 151b, N-(1-benzyl-1H-pyrazol-4-yl)-4a-methyl-4,4a,5,5a-tetrahydro-1H-cyclopropa[4,5]cyclopent a[1,2-c]pyrazole-3-carboxamide], `CC12CCc3c(C(=O)Nc4cnn(Cc5ccccc5)c4)n[nH]c3C1C2` (single isomer, unassigned) [Example 153a, N-(1-benzyl-1H-pyrazol-4-yl)-5a-methyl-1,4,5,5a,6,6a-hexahydrocyclopropa[g]indazole-3-c arboxamide] is 4.8-fold higher in Ki: 12 nM for the first, 58 nM for the second. The first binds more tightly here.

Compared with `CC12Cc3c(C(=O)Nc4cnn(C(c5ccccc5)C5CCS(=O)(=O)CC5)c4)n[nH]c3C1C2` (single isomer, unassigned) [Example 152a, N-(1-((1,1-dioxidotetrahydro-2H-thiopyran-4-yl)(phenyl)methyl)-1H-pyrazol-4-yl)-4a-methyl-4,4a,5,5a-tetrahydro-1H-cyclopropa[4,5]cyclopenta[1,2-c]pyrazole-3-carboxamide], `CC1(C)CCc2c(C(=O)Nc3cnn(C(c4ccccc4)C4CN(CCF)C4)c3)n[nH]c2C1` (centres unmarked) [Example 75b, N-(1-((1-(2-fluoroethyl)azetidin-3-yl)(phenyl)methyl)-1H-pyrazol-4-yl)-6,6-dimethyl-4,5,6,7-tetrahydro-1H-indazole-3-carboxamide] is 140-fold lower in Ki: 42 nM for the first, 0.3 nM for the second. The second binds more tightly here.

Going from `CC12Cc3c(C(=O)Nc4cnn(C(c5ccccc5)C5CCS(=O)(=O)CC5)c4)n[nH]c3C1C2` (single isomer, unassigned) [Example 152b, N-(1-((1,1-dioxidotetrahydro-2H-thiopyran-4-yl)(phenyl)methyl)-1H-pyrazol-4-yl)-4a-methyl-4,4a,5,5a-tetrahydro-1H-cyclopropa[4,5]cyclopenta[1,2-c]pyrazole-3-carboxamide] to `CC12CCc3c(C(=O)Nc4cnn(Cc5ccccc5)c4)n[nH]c3C1C2` (single isomer, unassigned) [Example 153b, N-(1-benzyl-1H-pyrazol-4-yl)-5a-methyl-1,4,5,5a,6,6a-hexahydrocyclopropa[g]indazole-3-c arboxamide], the Ki rises from 3 nM to 15 nM (5-fold). The first binds more tightly here.

`CC12Cc3c(C(=O)Nc4cnn(C(c5ccccc5)C5CCS(=O)(=O)CC5)c4)n[nH]c3C1C2` (single isomer, unassigned) [Example 152c, N-(1-((1,1-dioxidotetrahydro-2H-thiopyran-4-yl)(phenyl)methyl)-1H-pyrazol-4-yl)-4a-methyl-4,4a,5,5a-tetrahydro-1H-cyclopropa[4,5]cyclopenta[1,2-c]pyrazole-3-carboxamide] and `CC12Cc3[nH]nc(C(=O)Nc4cnn(C(CCS(C)(=O)=O)c5ccccc5)c4)c3CC1C2` (centres unmarked) [Example 69a, 5a-methyl-N-(1-(3-(methylsulfonyl)-1-phenylpropyl)-1H-pyrazol-4-yl)-1,4,4a,5,5a,6-hexahydrocyclopropa[f]indazole-3-carboxamide] are the same in Ki: 2 nM for the first, 2 nM for the second.

First: CC12Cc3c(C(=O)Nc4cnn(C(c5ccccc5)C5CCS(=O)(=O)CC5)c4)n[nH]c3C1C2 (single isomer, unassigned) [Example 152d, N-(1-((1,1-dioxidotetrahydro-2H-thiopyran-4-yl)(phenyl)methyl)-1H-pyrazol-4-yl)-4a-methyl-4,4a,5,5a-tetrahydro-1H-cyclopropa[4,5]cyclopenta[1,2-c]pyrazole-3-carboxamide]
Second: CC1(C)CCc2c(C(=O)Nc3cnn(C(c4cccc(S(C)(=O)=O)c4)C4CCOCC4)c3)n[nH]c2C1 (single isomer, unassigned) [Example 154a, 6,6-dimethyl-N-(1-((3-(methylsulfonyl)phenyl)(tetrahydro-2H-pyran-4-yl)methyl)-1H-pyrazol-4-yl)-4,5,6,7-tetrahydro-1H-indazole-3-carboxamide]
The Ki of the first is 150-fold higher: 15 nM for the first, 0.1 nM for the second.

First: CC1(C)CCc2c(C(=O)Nc3cnn(C(c4cccc(S(C)(=O)=O)c4)C4CCOCC4)c3)n[nH]c2C1 (single isomer, unassigned) [Example 154b, 6,6-dimethyl-N-(1-((3-(methylsulfonyl)phenyl)(tetrahydro-2H-pyran-4-yl)methyl)-1H-pyrazol-4-yl)-4,5,6,7-tetrahydro-1H-indazole-3-carboxamide]
Second: CN(C)CCC(c1ccccc1)n1cc(NC(=O)c2n[nH]c3c2CCC2(CCCO2)C3)cn1 (centres unmarked) [Example 59, N-(1-(3-(dimethylamino)-1-phenylpropyl)-1H-pyrazol-4-yl)-1′,4,4′,5,5′,7′-hexahydro-3H-spiro[furan-2,6′-indazole]-3′-carboxamide]
The Ki of the first is 40-fold lower: 1 nM for the first, 40 nM for the second.

Compared with `N#Cc1cccc(Cn2cc(NC(=O)c3n[nH]c4c3CCCC4)cn2)c1` [Example 3, N-(1-(3-cyanobenzyl)-1H-pyrazol-4-yl)-4,5,6,7-tetrahydro-1H-indazole-3-carboxamide], `N#Cc1cccc(Cn2cc(NC(=O)c3n[nH]c4c3CCC4)cn2)c1` [Example 20, N-(1-(3-cyanobenzyl)-1H-pyrazol-4-yl)-1,4,5,6-tetrahydrocyclopenta[c]pyrazole-3-carboxamide] is 2.9-fold higher in Ki: 31 nM for the first, 89 nM for the second. The first binds more tightly here.

Compared with `O=C(Nc1cnn(Cc2ccccc2)c1)c1n[nH]c2c1CC1(CC2)COC1` [Example 13, N-(1-benzyl-1H-pyrazol-4-yl)-1,4,6,7-tetrahydrospiro[indazole-5,3′-oxetane]-3-carboxamide], `O=C(Nc1cnn(Cc2ccccc2)c1)c1n[nH]c2c1CC(F)(F)CC2` [Example 17, N-(1-benzyl-1H-pyrazol-4-yl)-5,5-difluoro-4,5,6,7-tetrahydro-1H-indazole-3-carboxamide] is 6.7-fold lower in Ki: 240 nM for the first, 36 nM for the second. The second binds more tightly here.

First: CC1(C)Cc2[nH]nc(C(=O)Nc3cnn(Cc4ccccc4)c3)c2C1 [Example 21, N-(1-benzyl-1H-pyrazol-4-yl)-5,5-dimethyl-1,4,5,6-tetrahydrocyclopenta[c]pyrazole-3-carb oxamide]
Second: CC1(C)Cc2[nH]nc(C(=O)Nc3cnn(Cc4ccccc4)c3)c2CCO1 [Example 71a, N-(1-benzyl-1H-pyrazol-4-yl)-7,7-dimethyl-4,5,7,8-tetrahydro-1H-oxepino[4,5-c]pyrazole-3-carboxamide]
The Ki of the first is 540-fold lower: 7.4 nM for the first, 4000 nM for the second. The first binds more tightly here.

Going from `O=C(Nc1cnn(Cc2ccccc2)c1)c1n[nH]c2c1C1CC(C2)C1` [Example 31, N-(1-benzyl-1H-pyrazol-4-yl)-4,5,6,7-tetrahydro-1H-4,6-methanoindazole-3-carboxamide] to `O=C(Nc1cnn(Cc2ccccc2)c1)c1n[nH]c2c1CC1CC2C1` [Example 32, N-(1-benzyl-1H-pyrazol-4-yl)-4,5,6,7-tetrahydro-1H-5,7-methanoindazole-3-carboxamide], the Ki falls from 260 nM to 38 nM (6.8-fold). The second binds more tightly here.

`CC1(O)CCc2c(C(=O)Nc3cnn(Cc4ccccc4)c3)n[nH]c2C1` (centres unmarked) [Example 51b, N-(1-benzyl-1H-pyrazol-4-yl)-6-hydroxy-6-methyl-4,5,6,7-tetrahydro-1H-indazole-3-carboxamide] and `CC1(C)Cc2c(C(=O)Nc3cnn(Cc4ccccc4)c3)n[nH]c2CCO1` [Example 71b, N-(1-benzyl-1H-pyrazol-4-yl)-5,5-dimethyl-4,5,7,8-tetrahydro-1H-oxepino[4,5-c]pyrazole-3-carboxamide] are within 1.5-fold of each other in Ki: 860 nM for the first, 790 nM for the second.

`CN(C)CCn1cc(NC(=O)c2n[nH]c3c2CCC(C)(C)C3)cn1` [Example 72, N-(1-(2-(dimethylamino)ethyl)-1H-pyrazol-4-yl)-6,6-dimethyl-4,5,6,7-tetrahydro-1H-indazole-3-carboxamide] showed a Ki of 78 nM.
